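These data come from cells grown in 96-well plates and exposed to compound for 48 hours at five concentrations. GI50 marks 50% less growth. At the TGI there is no net growth.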
Assays:
Assay in all cases: DTP human tumour cell line panel, 48 h
SK-MEL-28 melanoma = system: SK-MEL-28 melanoma
HOP-92 NSCLC = system: HOP-92 NSCLC
MDA-MB-435 = system: MDA-MB-435
SR leukemia = system: SR leukemia
MDA-MB-231 breast = system: MDA-MB-231 breast
HCT-15 colon = system: HCT-15 colon
MALME-3M melanoma = system: MALME-3M melanoma
LOX IMVI melanoma = system: LOX IMVI melanoma
HCT-116 colon = system: HCT-116 colon
COLO 205 colon = system: COLO 205 colon
NCI/ADR-RES ovarian = system: NCI/ADR-RES ovarian
KM12 colon = system: KM12 colon
U251 CNS = system: U251 CNS
NCI-H522 lung = system: NCI-H522 lung
NCI-H23 lung = system: NCI-H23 lung
HT29 colon = system: HT29 colon
A549 NSCLC = system: A549 NSCLC
SK-MEL-5 melanoma = system: SK-MEL-5 melanoma
OVCAR-8 ovarian = system: OVCAR-8 ovarian
SK-OV-3 ovarian = system: SK-OV-3 ovarian
SF-539 CNS = system: SF-539 CNS
CAKI-1 renal = system: CAKI-1 renal
SK-MEL-2 melanoma = system: SK-MEL-2 melanoma
OVCAR-5 ovarian = system: OVCAR-5 ovarian
ACHN renal = system: ACHN renal
NCI-H460 lung = system: NCI-H460 lung
K-562 leukemia = system: K-562 leukemia
SF-295 CNS = system: SF-295 CNS
T-47D breast = system: T-47D breast
NCI-H226 lung = system: NCI-H226 lung
UO-31 renal = system: UO-31 renal
UACC-62 melanoma = system: UACC-62 melanoma
SNB-19 CNS = system: SNB-19 CNS
MCF7 breast = system: MCF7 breast
DU-145 prostate = system: DU-145 prostate
PC-3 prostate = system: PC-3 prostate
HCC-2998 colon = system: HCC-2998 colon
SN12C renal = system: SN12C renal
TK-10 renal = system: TK-10 renal
SF-268 CNS = system: SF-268 CNS
786-0 renal = system: 786-0 renal
M14 melanoma = system: M14 melanoma
BT-549 breast = system: BT-549 breast
SW-620 colon = system: SW-620 colon
CCRF-CEM leukemia = system: CCRF-CEM leukemia
HOP-62 NSCLC = system: HOP-62 NSCLC
A498 renal = system: A498 renal
RPMI-8226 leukemia = system: RPMI-8226 leukemia
OVCAR-4 ovarian = system: OVCAR-4 ovarian
MOLT-4 leukemia = system: MOLT-4 leukemia
IGROV1 ovarian = system: IGROV1 ovarian
UACC-257 melanoma = system: UACC-257 melanoma
HS 578T breast = system: HS 578T breast
SNB-75 CNS = system: SNB-75 CNS

Which GI50 (SK-MEL-28 melanoma) does the source give for CNC(=O)c1ccccc1CC1(O)c2ccccc2Oc2ccccc21 here?
The GI50 was 23.2 µM.

What about the TGI (SK-MEL-28 melanoma) of the same molecule?
The TGI was > 100 µM.

What about the GI50 (HOP-92 NSCLC) of the same molecule?
The GI50 was 7.52 µM.

And the TGI (HOP-92 NSCLC)?
Its TGI is 44.4 µM.

What about the GI50 (MDA-MB-435) of the same molecule?
The GI50 was 3.32 µM.

What about the TGI (MDA-MB-435) of the same molecule?
The TGI was 19.9 µM.

What about the GI50 (SR leukemia) of the same molecule?
The GI50 was 6.61 µM.

And the TGI (SR leukemia)?
Its TGI is 86.4 µM.

And the GI50 (MDA-MB-231 breast)?
The GI50 was 15 µM.

And the TGI (MDA-MB-231 breast)?
Its TGI is 83.3 µM.

What about the GI50 (HCT-15 colon) of the same molecule?
The GI50 was 12.7 µM.

What about the TGI (HCT-15 colon) of the same molecule?
The TGI was > 100 µM.

What about the GI50 (MALME-3M melanoma) of the same molecule?
The GI50 was 22.8 µM.

What about the TGI (MALME-3M melanoma) of the same molecule?
Its TGI is > 100 µM.

What about the GI50 (LOX IMVI melanoma) of the same molecule?
Its GI50 is 29.1 µM.

And the TGI (LOX IMVI melanoma)?
The TGI was > 100 µM.

And the GI50 (HCT-116 colon)?
The GI50 was 21.8 µM.

And the TGI (HCT-116 colon)?
Its TGI is > 100 µM.

And the GI50 (COLO 205 colon)?
Its GI50 is 3.99 µM.

And the TGI (COLO 205 colon)?
The TGI was 15.9 µM.

And the GI50 (NCI/ADR-RES ovarian)?
The GI50 was 10.1 µM.

What about the TGI (NCI/ADR-RES ovarian) of the same molecule?
Its TGI is 86.9 µM.

What about the GI50 (KM12 colon) of the same molecule?
Its GI50 is 8.15 µM.

And the TGI (KM12 colon)?
The TGI was 44.6 µM.

What about the GI50 (U251 CNS) of the same molecule?
Its GI50 is 19.6 µM.

And the TGI (U251 CNS)?
The TGI was 59.6 µM.

And the GI50 (NCI-H522 lung)?
The GI50 was 8.39 µM.

And the TGI (NCI-H522 lung)?
The TGI was 37.3 µM.

What about the GI50 (NCI-H23 lung) of the same molecule?
Its GI50 is 26 µM.

And the TGI (NCI-H23 lung)?
The TGI was > 100 µM.

What about the GI50 (HT29 colon) of the same molecule?
The GI50 was 9.73 µM.

What about the TGI (HT29 colon) of the same molecule?
Its TGI is 51.1 µM.

What about the GI50 (A549 NSCLC) of the same molecule?
The GI50 was 16.5 µM.

What about the TGI (A549 NSCLC) of the same molecule?
Its TGI is > 100 µM.

What about the GI50 (SK-MEL-5 melanoma) of the same molecule?
The GI50 was 3.2 µM.

And the TGI (SK-MEL-5 melanoma)?
Its TGI is 13 µM.

And the GI50 (OVCAR-8 ovarian)?
The GI50 was 29.1 µM.

What about the TGI (OVCAR-8 ovarian) of the same molecule?
The TGI was > 100 µM.

And the GI50 (SK-OV-3 ovarian)?
Its GI50 is 24 µM.

What about the TGI (SK-OV-3 ovarian) of the same molecule?
Its TGI is 87.3 µM.

And the GI50 (SF-539 CNS)?
Its GI50 is 17.3 µM.

And the TGI (SF-539 CNS)?
The TGI was 40.8 µM.

And the GI50 (CAKI-1 renal)?
The GI50 was 21.7 µM.

What about the TGI (CAKI-1 renal) of the same molecule?
The TGI was > 100 µM.

And the GI50 (SK-MEL-2 melanoma)?
Its GI50 is 14.2 µM.

What about the TGI (SK-MEL-2 melanoma) of the same molecule?
The TGI was 34.5 µM.

And the GI50 (OVCAR-5 ovarian)?
Its GI50 is 29.1 µM.

And the TGI (OVCAR-5 ovarian)?
Its TGI is > 100 µM.

What about the GI50 (ACHN renal) of the same molecule?
The GI50 was 26.2 µM.

What about the TGI (ACHN renal) of the same molecule?
The TGI was > 100 µM.

And the GI50 (NCI-H460 lung)?
Its GI50 is 25 µM.

And the TGI (NCI-H460 lung)?
Its TGI is 82.6 µM.

What about the GI50 (K-562 leukemia) of the same molecule?
Its GI50 is 6.78 µM.

What about the TGI (K-562 leukemia) of the same molecule?
Its TGI is > 100 µM.

And the GI50 (SF-295 CNS)?
Its GI50 is 20.7 µM.

What about the TGI (SF-295 CNS) of the same molecule?
The TGI was > 100 µM.

What about the GI50 (T-47D breast) of the same molecule?
Its GI50 is 21.5 µM.

And the TGI (T-47D breast)?
Its TGI is > 100 µM.

What about the GI50 (NCI-H226 lung) of the same molecule?
Its GI50 is 11.3 µM.

And the TGI (NCI-H226 lung)?
The TGI was 34.8 µM.

And the GI50 (UO-31 renal)?
The GI50 was 29.4 µM.

And the TGI (UO-31 renal)?
Its TGI is > 100 µM.

And the GI50 (UACC-62 melanoma)?
The GI50 was 10.4 µM.

And the TGI (UACC-62 melanoma)?
The TGI was 52.6 µM.

And the GI50 (SNB-19 CNS)?
The GI50 was 24.6 µM.

What about the TGI (SNB-19 CNS) of the same molecule?
Its TGI is > 100 µM.

And the GI50 (MCF7 breast)?
The GI50 was 5.08 µM.

What about the TGI (MCF7 breast) of the same molecule?
Its TGI is 44.5 µM.

And the GI50 (DU-145 prostate)?
The GI50 was 22 µM.

And the TGI (DU-145 prostate)?
The TGI was 56.5 µM.

What about the GI50 (PC-3 prostate) of the same molecule?
Its GI50 is 13.1 µM.

And the TGI (PC-3 prostate)?
Its TGI is 99.3 µM.

What about the GI50 (HCC-2998 colon) of the same molecule?
Its GI50 is 29 µM.

And the TGI (HCC-2998 colon)?
The TGI was 91.3 µM.

And the GI50 (SN12C renal)?
The GI50 was 26 µM.

And the TGI (SN12C renal)?
Its TGI is > 100 µM.

What about the GI50 (TK-10 renal) of the same molecule?
Its GI50 is 26.6 µM.

What about the TGI (TK-10 renal) of the same molecule?
The TGI was 89.9 µM.

What about the GI50 (SF-268 CNS) of the same molecule?
Its GI50 is 24.2 µM.

What about the TGI (SF-268 CNS) of the same molecule?
Its TGI is 85.9 µM.

What about the GI50 (786-0 renal) of the same molecule?
The GI50 was 20.3 µM.

And the TGI (786-0 renal)?
Its TGI is 46.4 µM.

What about the GI50 (M14 melanoma) of the same molecule?
Its GI50 is 15.3 µM.

What about the TGI (M14 melanoma) of the same molecule?
Its TGI is 56.6 µM.

And the GI50 (BT-549 breast)?
Its GI50 is 25.9 µM.

What about the TGI (BT-549 breast) of the same molecule?
The TGI was > 100 µM.

What about the GI50 (SW-620 colon) of the same molecule?
Its GI50 is 14 µM.

And the TGI (SW-620 colon)?
The TGI was > 100 µM.

What about the GI50 (CCRF-CEM leukemia) of the same molecule?
Its GI50 is 24.6 µM.

What about the TGI (CCRF-CEM leukemia) of the same molecule?
The TGI was > 100 µM.

What about the GI50 (HOP-62 NSCLC) of the same molecule?
Its GI50 is 17.2 µM.

And the TGI (HOP-62 NSCLC)?
Its TGI is 74.5 µM.

What about the GI50 (A498 renal) of the same molecule?
The GI50 was 4.54 µM.

What about the TGI (A498 renal) of the same molecule?
Its TGI is 37.5 µM.

And the GI50 (RPMI-8226 leukemia)?
Its GI50 is 26.6 µM.

What about the TGI (RPMI-8226 leukemia) of the same molecule?
The TGI was 91.7 µM.

And the GI50 (OVCAR-4 ovarian)?
Its GI50 is 27.8 µM.

And the TGI (OVCAR-4 ovarian)?
The TGI was > 100 µM.

What about the GI50 (MOLT-4 leukemia) of the same molecule?
Its GI50 is 36.4 µM.

What about the TGI (MOLT-4 leukemia) of the same molecule?
The TGI was > 100 µM.

What about the GI50 (IGROV1 ovarian) of the same molecule?
The GI50 was 26.4 µM.

And the TGI (IGROV1 ovarian)?
The TGI was > 100 µM.

What about the GI50 (UACC-257 melanoma) of the same molecule?
The GI50 was 33.8 µM.

What about the TGI (UACC-257 melanoma) of the same molecule?
The TGI was > 100 µM.

And the GI50 (HS 578T breast)?
Its GI50 is 16.6 µM.

And the TGI (HS 578T breast)?
Its TGI is 57.1 µM.

And the GI50 (SNB-75 CNS)?
The GI50 was 12.4 µM.

What about the TGI (SNB-75 CNS) of the same molecule?
The TGI was 39 µM.

Source: PubChem BioAssay (NCI)
